*1 amine or outer side, *2 acyl side, *3 side chain or, on linkers, in order; H or OH if unused. Where a SMILES comes first, the peptide text is derived from it. Side-chain parts run from the residue outwards. [ ]: non-standard residue; d: D form. The star is where a group is joined. C20 diacid = O=C(O)CCCCCCCCCCCCCCCCCCC(=O)*; C18 diacid = O=C(O)CCCCCCCCCCCCCCCCC(=O)*; αMePhe(2-F) = C[C@](N)(Cc1ccccc1F)C(=O)O; γGlu = O=C(O)[C@H](CCC(=O)[*:2])N[*:1]; 4Pal = N[C@@H](Cc1ccncc1)C(=O)O; αMeL = CC(C)C[C@](C)(N)C(=O)O; Orn = NCCC[C@H](N)C(=O)O; AEEA = NCCOCCOCC(=O)O; Aib = CC(C)(N)C(=O)O
Legend:
[1] = molecular target: T1, human GcgR (Homo sapiens, UniProt P47871); experiment: [125I]-Glucagon binding, SPA with WGA beads, 0.1% bacitracin; conditions: geometric mean, read-out: hGcgR Ki
T1 construct: expressed in transfected cells; crude membranes
T1 sequence (P47871 26-477): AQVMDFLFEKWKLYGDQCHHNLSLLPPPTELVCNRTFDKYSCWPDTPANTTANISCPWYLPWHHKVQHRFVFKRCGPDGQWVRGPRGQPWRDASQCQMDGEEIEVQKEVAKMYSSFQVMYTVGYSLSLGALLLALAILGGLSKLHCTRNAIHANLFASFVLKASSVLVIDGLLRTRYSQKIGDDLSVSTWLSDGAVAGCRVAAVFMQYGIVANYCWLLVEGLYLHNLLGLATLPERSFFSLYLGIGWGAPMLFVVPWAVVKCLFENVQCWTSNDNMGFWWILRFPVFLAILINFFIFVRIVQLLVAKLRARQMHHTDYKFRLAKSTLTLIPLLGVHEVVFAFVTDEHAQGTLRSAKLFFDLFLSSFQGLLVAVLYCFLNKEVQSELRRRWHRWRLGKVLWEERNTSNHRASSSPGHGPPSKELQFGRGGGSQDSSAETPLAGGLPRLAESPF
In short: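 SPA competition binding with WGA beads on crude membranes from HEK293 cells stably expressing hGcgR. Buffer: 25 mM HEPES pH 7.4, 2.5 mM CaCl2, 1 mM MgCl2, 0.1% bacitracin, 0.003% Tween-20; 10-point 3-fold dilutions, NSB with 1 μM Gcg.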

[2] = molecular target: T2, human GIPR (Homo sapiens, UniProt P48546); experiment: [125I]-GIP binding, SPA with WGA beads, 0.1% bacitracin; conditions: geometric mean, read-out: hGIPR Ki
T2 construct: expressed in transfected cells; crude membranes
T2 sequence (P48546 22-466): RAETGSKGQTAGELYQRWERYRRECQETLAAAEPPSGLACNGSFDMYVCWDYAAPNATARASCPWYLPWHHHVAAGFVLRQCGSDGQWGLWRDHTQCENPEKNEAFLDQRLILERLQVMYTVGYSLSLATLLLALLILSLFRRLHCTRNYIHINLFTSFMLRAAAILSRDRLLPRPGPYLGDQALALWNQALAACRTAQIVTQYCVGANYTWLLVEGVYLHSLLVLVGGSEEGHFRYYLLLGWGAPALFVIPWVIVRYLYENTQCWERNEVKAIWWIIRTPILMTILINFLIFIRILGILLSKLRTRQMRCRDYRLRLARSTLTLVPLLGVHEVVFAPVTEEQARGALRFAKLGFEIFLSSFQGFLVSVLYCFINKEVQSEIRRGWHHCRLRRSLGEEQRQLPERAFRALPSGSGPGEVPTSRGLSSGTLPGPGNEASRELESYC
In short: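 Ki values are geometric means (SEM, n independent days), derived from four-parameter nonlinear regression of IC50. Membranes came from hGIPR-expressing CHO cells.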

[3] = molecular target: T3, human GLP-1R (Homo sapiens, UniProt P43220); experiment: [125I]-GLP-1 binding, SPA with WGA beads, 0.1% bacitracin; conditions: geometric mean, read-out: hGLP1R Ki
T3 construct: expressed in transfected cells; crude membranes
T3 sequence (P43220 24-463): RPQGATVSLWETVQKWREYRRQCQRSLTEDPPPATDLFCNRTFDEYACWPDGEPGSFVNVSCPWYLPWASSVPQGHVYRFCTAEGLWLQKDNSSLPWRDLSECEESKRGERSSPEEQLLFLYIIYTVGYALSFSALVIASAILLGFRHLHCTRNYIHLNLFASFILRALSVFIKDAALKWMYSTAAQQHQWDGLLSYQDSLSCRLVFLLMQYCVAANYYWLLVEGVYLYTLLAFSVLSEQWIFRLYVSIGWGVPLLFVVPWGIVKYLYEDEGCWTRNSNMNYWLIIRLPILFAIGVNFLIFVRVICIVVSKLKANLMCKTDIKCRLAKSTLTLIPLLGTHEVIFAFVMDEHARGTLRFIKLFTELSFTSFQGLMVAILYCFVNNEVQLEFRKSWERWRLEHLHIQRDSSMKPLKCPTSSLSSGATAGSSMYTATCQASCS
In short: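 Binding buffer was 25 mM HEPES pH 7.4 with 2.5 mM CaCl2, 1 mM MgCl2, 0.1% (w/v) bacitracin, 0.003% Tween-20 and EDTA-free protease inhibitors. Four-parameter regression gave IC50, converted to Ki (geometric mean, SEM, n independent days).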

CC[C@H](C)[C@H](NC(=O)[C@H](CCCN)NC(=O)[C@H](CC(=O)O)NC(=O)[C@H](CC(C)C)NC(=O)[C@](C)(CC(C)C)NC(=O)[C@@H](NC(=O)[C@H](CO)NC(=O)[C@H](Cc1ccc(O)cc1)NC(=O)[C@H](CC(=O)O)NC(=O)[C@H](CO)NC(=O)[C@@H](NC(=O)[C@H](Cc1ccccc1)NC(=O)[C@@H](NC(=O)CNC(=O)[C@H](CCC(=O)O)NC(=O)C(C)(C)NC(=O)[C@@H](N)Cc1ccc(O)cc1)[C@@H](C)O)[C@@H](C)CC)[C@@H](C)CC)C(=O)N[C@@H](Cc1c[nH]cn1)C(=O)N[C@@H](CCC(N)=O)C(=O)NC(C)(C)C(=O)N[C@@H](CCC(=O)O)C(=O)N[C@@H](Cc1ccccc1)C(=O)N[C@H](C(=O)N[C@H](CCC(=O)O)C(=O)N[C@@H](Cc1ccc(O)cc1)C(=O)N[C@@H](CCCCNC(=O)COCCOCCNC(=O)COCCOCCNC(=O)CC[C@H](NC(=O)CCCCCCCCCCCCCCCCC(=O)O)C(=O)O)C(=O)N[C@@H](CC(C)C)C(=O)N[C@@H](CCC(=O)O)C(=O)NCC(=O)NCC(=O)N1CCC[C@H]1C(=O)N[C@@H](CO)C(=O)N[C@@H](CO)C(=O)NCC(=O)N[C@@H](C)C(=O)N1CCC[C@H]1C(=O)N1CCC[C@H]1C(=O)N1CCC[C@H]1C(=O)N[C@@H](CO)C(N)=O)C(C)C [Example 7] was tested, and the Ki [1] was greater than 961 nM, the Ki [2] was 0.193 nM and the Ki [3] was greater than 913 nM.
Work on CC[C@H](C)[C@H](NC(=O)[C@H](Cc1ccccc1)NC(=O)[C@@H](NC(=O)CNC(=O)[C@H](CCC(=O)O)NC(=O)C(C)(C)NC(=O)[C@@H](N)Cc1ccc(O)cc1)[C@@H](C)O)C(=O)N[C@@H](CO)C(=O)N[C@@H](CC(=O)O)C(=O)N[C@@H](Cc1ccc(O)cc1)C(=O)N[C@@H](CO)C(=O)N[C@H](C(=O)N[C@@](C)(CC(C)C)C(=O)N[C@@H](CC(C)C)C(=O)N[C@@H](CC(=O)O)C(=O)N[C@@H](CCCN)C(=O)N[C@@H](CCCCNC(=O)COCCOCCNC(=O)COCCOCCNC(=O)CC[C@H](NC(=O)CCCCCCCCCCCCCCCCC(=O)O)C(=O)O)C(=O)N[C@@H](Cc1c[nH]cn1)C(=O)N[C@@H](CCC(N)=O)C(=O)NC(C)(C)C(=O)N[C@@H](CC(=O)O)C(=O)N[C@@H](Cc1ccccc1)C(=O)N[C@H](C(=O)N[C@@H](CCC(=O)O)C(=O)N[C@@H](Cc1ccncc1)C(=O)N[C@@H](CC(C)C)C(=O)N[C@@H](CC(C)C)C(=O)N[C@@H](CCC(=O)O)C(=O)N[C@@H](C)C(=O)NCC(=O)N1CCC[C@H]1C(=O)N[C@@H](CO)C(=O)N[C@@H](CO)C(=O)NCC(=O)N[C@@H](C)C(=O)N1CCC[C@H]1C(=O)N1CCC[C@H]1C(=O)N1CCC[C@H]1C(=O)N[C@@H](CO)C(N)=O)C(C)C)[C@@H](C)CC [Example 87] (H-Y[Aib]EGTFISDYSI[αMeL]LD[Orn]K([AEEA-AEEA-γGlu-C18 diacid])HQ[Aib]DFVE[4Pal]LLEAGPSSGAPPPS-NH2) yielded a Ki [1] of 576 nM, a Ki [2] of 0.0538 nM and a Ki [3] of 849 nM.
For CC[C@H](C)[C@H](NC(=O)[C@H](CO)NC(=O)[C@H](Cc1ccc(O)cc1)NC(=O)[C@H](CC(=O)O)NC(=O)[C@H](CO)NC(=O)[C@@H](NC(=O)[C@](C)(Cc1ccccc1F)NC(=O)[C@@H](NC(=O)CNC(=O)[C@H](CCC(=O)O)NC(=O)C(C)(C)NC(=O)[C@@H](N)Cc1ccc(O)cc1)[C@@H](C)O)[C@@H](C)CC)C(=O)N[C@@H](CC(C)C)C(=O)N[C@@H](CC(C)C)C(=O)N[C@@H](CC(=O)O)C(=O)N[C@@H](CCCCN)C(=O)N[C@H](C(=O)N[C@@H](Cc1c[nH]cn1)C(=O)N[C@@H](CCC(N)=O)C(=O)NC(C)(C)C(=O)N[C@@H](CC(=O)O)C(=O)N[C@@H](Cc1ccccc1)C(=O)N[C@H](C(=O)N[C@@H](CCC(=O)O)C(=O)N[C@@H](Cc1ccncc1)C(=O)N[C@@H](CCCCNC(=O)COCCOCCNC(=O)COCCOCCNC(=O)CC[C@H](NC(=O)CCCCCCCCCCCCCCCCCCC(=O)O)C(=O)O)C(=O)N[C@@H](CC(C)C)C(=O)N[C@@H](CCC(=O)O)C(=O)N[C@@H](CCC(N)=O)C(=O)NCC(=O)N1CCC[C@H]1C(=O)N[C@@H](CO)C(=O)N[C@@H](CO)C(=O)NCC(=O)N[C@@H](C)C(=O)N1CCC[C@H]1C(=O)N1CCC[C@H]1C(=O)N1CCC[C@H]1C(=O)N[C@@H](CO)C(N)=O)C(C)C)[C@@H](C)CC [Example 121] (H-Y[Aib]EGT[αMePhe(2-F)]ISDYSILLDKIHQ[Aib]DFVE[4Pal]K([AEEA-AEEA-γGlu-C20 diacid])LEQGPSSGAPPPS-NH2), the Ki [1] was 94.9 nM, the Ki [2] was 0.103 nM and the Ki [3] was greater than 912 nM.
Work on CC[C@H](C)[C@H](NC(=O)[C@H](CO)NC(=O)[C@H](Cc1ccc(O)cc1)NC(=O)[C@H](CC(=O)O)NC(=O)[C@H](CO)NC(=O)[C@@H](NC(=O)[C@](C)(Cc1ccccc1F)NC(=O)[C@@H](NC(=O)CNC(=O)[C@H](CCC(=O)O)NC(=O)C(C)(C)NC(=O)[C@@H](N)Cc1ccc(O)cc1)[C@@H](C)O)[C@@H](C)CC)C(=O)N[C@@H](CC(C)C)C(=O)N[C@@H](CC(C)C)C(=O)N[C@@H](CC(=O)O)C(=O)N[C@@H](CCCCN)C(=O)N[C@H](C(=O)N[C@@H](Cc1c[nH]cn1)C(=O)N[C@@H](CCC(N)=O)C(=O)NC(C)(C)C(=O)N[C@@H](CC(=O)O)C(=O)N[C@@H](Cc1ccccc1)C(=O)N[C@H](C(=O)N[C@@H](CCC(=O)O)C(=O)N[C@@H](Cc1ccncc1)C(=O)N[C@@H](CCCCNC(=O)COCCOCCNC(=O)COCCOCCNC(=O)CC[C@H](NC(=O)CCCCCCCCCCCCCCCCCCC(=O)O)C(=O)O)C(=O)N[C@@H](CC(C)C)C(=O)N[C@@H](CCC(=O)O)C(=O)NCC(=O)NCC(=O)N1CCC[C@H]1C(=O)N[C@@H](CO)C(=O)N[C@@H](CO)C(=O)NCC(=O)N[C@@H](C)C(=O)N1CCC[C@H]1C(=O)N1CCC[C@H]1C(=O)N1CCC[C@H]1C(=O)N[C@@H](CO)C(N)=O)C(C)C)[C@@H](C)CC [Example 119] (H-Y[Aib]EGT[αMePhe(2-F)]ISDYSILLDKIHQ[Aib]DFVE[4Pal]K([AEEA-AEEA-γGlu-C20 diacid])LEGGPSSGAPPPS-NH2) yielded a Ki [1] of 68.8 nM, a Ki [2] of 0.129 nM and a Ki [3] of 723 nM.
CC[C@H](C)[C@H](NC(=O)[C@H](CCCN)NC(=O)[C@H](CC(=O)O)NC(=O)[C@H](CC(C)C)NC(=O)[C@](C)(CC(C)C)NC(=O)[C@@H](NC(=O)[C@H](CO)NC(=O)[C@H](Cc1ccc(O)cc1)NC(=O)[C@H](CC(=O)O)NC(=O)[C@H](CO)NC(=O)[C@@H](NC(=O)[C@H](Cc1ccccc1)NC(=O)[C@@H](NC(=O)CNC(=O)[C@H](CCC(=O)O)NC(=O)C(C)(C)NC(=O)[C@@H](N)Cc1ccc(O)cc1)[C@@H](C)O)[C@@H](C)CC)[C@@H](C)CC)C(=O)N[C@@H](Cc1c[nH]cn1)C(=O)N[C@@H](CCC(N)=O)C(=O)NC(C)(C)C(=O)N[C@@H](CCC(=O)O)C(=O)N[C@@H](Cc1ccccc1)C(=O)N[C@H](C(=O)N[C@@H](CCC(=O)O)C(=O)N[C@@H](Cc1ccc(O)cc1)C(=O)N[C@@H](CCCCNC(=O)COCCOCCNC(=O)COCCOCCNC(=O)CC[C@H](NC(=O)CCCCCCCCCCCCCCCCCCC(=O)O)C(=O)O)C(=O)N[C@@H](CC(C)C)C(=O)N[C@@H](CCC(=O)O)C(=O)N[C@H](C(=O)NCC(=O)N1CCC[C@H]1C(=O)N[C@@H](CO)C(=O)N[C@@H](CO)C(=O)NCC(=O)N[C@@H](C)C(=O)N1CCC[C@H]1C(=O)N1CCC[C@H]1C(=O)N1CCC[C@H]1C(=O)N[C@@H](CO)C(N)=O)[C@@H](C)O)C(C)C [Example 105] (H-Y[Aib]EGTFISDYSI[αMeL]LD[Orn]IHQ[Aib]EFVEYK([AEEA-AEEA-γGlu-C20 diacid])LETGPSSGAPPPS-NH2) was tested, and the Ki [1] was greater than 960 nM, the Ki [2] was 0.174 nM and the Ki [3] was greater than 910 nM.
